Columns and labels:
LXRα and LXRβ = molecular target: T1, LXRα and LXRβ (Homo sapiens, UniProt P55055+Q13133); assay: High throughput FRET co-activator (SRC-1) recruitment assay, multiplexed; assay type: biochemical; conditions: 10 uM, positive control; negative control DMSO around 0
T1 construct: made in house
T1 sequence (Q13133 188-447 limits assumed): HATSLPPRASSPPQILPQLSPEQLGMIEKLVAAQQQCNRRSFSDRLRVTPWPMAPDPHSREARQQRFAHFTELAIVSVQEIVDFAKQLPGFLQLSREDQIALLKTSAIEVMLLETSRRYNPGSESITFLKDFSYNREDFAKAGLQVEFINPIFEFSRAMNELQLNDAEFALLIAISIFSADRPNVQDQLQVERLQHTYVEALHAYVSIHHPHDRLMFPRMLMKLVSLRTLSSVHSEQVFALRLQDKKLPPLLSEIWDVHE
T1 sequence (P55055 197-460 limits assumed): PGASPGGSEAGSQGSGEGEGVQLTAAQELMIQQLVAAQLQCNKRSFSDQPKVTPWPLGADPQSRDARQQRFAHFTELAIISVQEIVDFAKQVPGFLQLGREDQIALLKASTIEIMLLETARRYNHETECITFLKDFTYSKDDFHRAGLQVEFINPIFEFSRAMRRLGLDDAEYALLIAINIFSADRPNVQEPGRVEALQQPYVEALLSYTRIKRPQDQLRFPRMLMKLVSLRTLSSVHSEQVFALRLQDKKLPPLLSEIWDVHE
T1 sequence (Q15788 676-700 partner limits assumed): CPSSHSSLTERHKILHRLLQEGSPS
Protocol: FIG. 9. is a scatter plot of a co-activator recruitment assay showing fluorescence emitted from APC at 665 nm in a FRET based (biochemical) co-factor recruitment assay that detects the binding of the SCR-1 co-activator to […]. In this assay, recruitment of SCR-1 to both LXRα and LXRβ were simultaneously assayed.
High through FRET cofactor interaction assays were performed in 96 or 384 well assay well plates using automated liquid handling and analysis. Screens for LXR were performed using the protocol below. Equivalent screens for FXR were performed using the FXR (SEQ.ID. No. 4) ligand binding domain in place of LXRα and LXRβ LBD and at a concentration of 8 nM per well.
1. Partially purified recombinant protein comprising glutathione-S-transferase fused in frame to the LXR-ligand binding domain (comprising amino acids 188-447 of human LXRα (SEQ. ID. No. 6), or amino acids 198-461 of human LXRβ (SEQ. ID. No. 7)).
2. Biotinylated peptide containing a SRC-1 receptor interaction motif(B-SRC-1) (SEQ. ID. No. 46).
3. […]
d) Plates were read using an LJL Analyst, or similar instrument, using the following conditions: Channel 1: The excitation wavelength was set to 330 nm, emitted light was collected at 615 nm, with 100 flashes per well, an integration time of 1000 μs; a 10 msec interval between flashes, and a delay after flashes of 200 μs. […]

ABCA1 [1] = assay: ABCA1 mRNA (RT-PCR) and protein (western blot) in peritoneal macrophage; assay type: cell-based, mouse; conditions: 1 μM, 18 hrs
Text: FIG. 2. LXR dependent activation and repression of ABCA1. Thyoglycolate induced peritoneal macrophage were isolated from wild type and LXRαβ knockout mice. […] FIG. 2A. Following induction mRNA was isolated and RT-PCR was used to quantitate the levels of ABCA1 and the cyclophilin. ABCA1 levels were normalized to cyclophilin levels and the results are presented as fold induction above wild type macrophage treated with vehicle. FIG. 2B. For western blot analysis, whole cells extracts were isolated, run on an SDS-PAGE and probed with an antibody specific for ABCA1. RNA isolation and analysis of gene expression by quantitative RT-PCR. Total RNA from mouse tissues and cells was isolated using RNeasy kits (QIAGEN Inc.) according to the supplier's total RNA isolation procedure. Real time PCR was performed using a Perkin-Elmer/ABI 7700 Prism. […] Quantitative PCR of reverse transcriptase reactions was carried out with 1.25 units Taq polymerase (Life Technologies), 1× Taq buffer, 3 mM MgCl2, 200 uM dNTPs, 400 nM target specific forward and reverse primers and 100 nM target specific fluorogenic probe. […] Levels of cyclophilin were measured in all in vivo samples and the results are presented as number of target transcripts per cyclophilin transcript. […] RT-PCR was used to quantitate the levels of ABCA1 and the cyclophilin following induction of mRNA. […]

ABCA1 [2] = assay: ABCA1 mRNA in tissues of mice dosed by oral gavage; assay type: in vivo, mouse; conditions: 10 mg/kg daily for 7 days, intestinal mucosa, liver, quadriceps, LXR dependent
Protocol: (§1) FIG. 5. LXR mediated repression of ABCA1 is tissue specific. To measure the LXR dependent regulation of ABCA1 in different tissues wild type and LXRαβ−/− mice were dosed with 10 mg/kg T0901317 for 7 days by oral gavage. After 7 days the animals were sacrificed and intestinal mucosa, quadriceps, and livers were harvested. Mouse embryonic fibroblasts (MEFs) were isolated from embryos harvested at embryonic day 14. MEFs were plated in DMEM+10% FBS and treated with either vehicle or 1 μM T0901317 for 18 hrs. RNA was isolated and RT-PCR was used to quantitate the levels of ABCA1 and cyclophilin in FIG. 5A, intestinal mucosa, FIG. 5B, liver, FIG. 5C, MEFs and FIG. 5D, quadricep. […] RNA isolation and analysis of gene expression by quantitative RT-PCR. […] Quantitative PCR of reverse transcriptase reactions was carried out with 1.25 units Taq polymerase (Life Technologies), 1× Taq buffer, 3 mM MgCl2, 200 uM dNTPs, 400 nM target specific forward and reverse primers and 100 nM target specific fluorogenic probe. […] Levels of cyclophilin were measured in all in vivo samples and the results are presented as number of target transcripts per cyclophilin transcript. […] ABCA1 levels were also measured in isolated mouse embryonic fibroblasts treated with T091317 in culture. LXR agonist treatment increases expression of ABCA1 mRNA in all of the tissues analyzed, in an LXR dependent manner. […]

ABCA1 [3] = assay: ABCA1 mRNA in mouse embryonic fibroblasts in culture; assay type: cell-based; conditions: MEFs in culture, 1 μM, 18 hrs; LXR dependent
Protocol: as §1

[4] = molecular target: T2, human LXRα ligand binding domain with co-repressors NCoR and SMRT (Homo sapiens, UniProt Q13133); assay: GAL4 two-hybrid co-repressor interaction in CV-1 cells, LXRα; assay type: cell-based; conditions: 1 μM overnight, luciferase normalized to β-gal
T2 construct: expressed in transfected cells; host or cells: CV-1 cells
T2 sequence (Q13133 164-447): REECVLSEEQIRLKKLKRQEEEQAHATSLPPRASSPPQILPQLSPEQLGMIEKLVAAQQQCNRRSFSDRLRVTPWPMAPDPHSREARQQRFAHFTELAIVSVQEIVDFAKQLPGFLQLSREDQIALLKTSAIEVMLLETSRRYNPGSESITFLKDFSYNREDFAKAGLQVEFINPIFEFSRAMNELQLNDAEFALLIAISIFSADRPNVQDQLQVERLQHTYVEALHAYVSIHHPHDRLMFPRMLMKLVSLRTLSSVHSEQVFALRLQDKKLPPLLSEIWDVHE
Protocol: (§2) FIG. 6. […] Two-hybrid analysis was performed by transiently transfecting CV-1 cells with a Gal4-luciferase reporter, Gal4-fusions of the receptor interacting domains of NcoR and SMRT, VP16 fusion of the ligand binding domains of LXRα and LXRβ and a β-gal expression vector. Cells were transfected with FUGENE transfection reagent and incubated with vehicle or 1 μM T0901317 overnight. The cells were then lysed and analyzed for β-gal and luciferase activity. The data is presented as luciferase activity normalized to β-gal activity.
(§3) GAL4 two-hybrid experiments. CV-1 cells were transfected using FuGene6 (Roche Applied Science, Indianapolis, Ind.) per manufacturer's instructions in 96 well plates with a total of 65 ng of DNA per well, consisting of 20 ng β-gal reporter, 15 ng GAL4-UAS4xRE (SEQ. ID. No. 28), 15 ng VP16-LXR-LBD, and 15 ng GAL4-human silencing mediator of retinoid and thyroid transcription (SMRT) receptor interacting domain 1 and 2 (ID1+ID2) or human nuclear receptor corepressor 1 (NCoR) ID1+ID2.

[5] = molecular target: T3, human LXRβ ligand binding domain with co-repressors NCoR and SMRT (Homo sapiens, UniProt P55055, DUP175-175); assay: GAL4 two-hybrid co-repressor interaction in CV-1 cells, LXRβ; assay type: cell-based; conditions: 1 μM overnight, luciferase normalized to β-gal
T3 construct: expressed in transfected cells; host or cells: CV-1 cells
T3 sequence (P55055 with tags, fused parts or gaps DUP175-175): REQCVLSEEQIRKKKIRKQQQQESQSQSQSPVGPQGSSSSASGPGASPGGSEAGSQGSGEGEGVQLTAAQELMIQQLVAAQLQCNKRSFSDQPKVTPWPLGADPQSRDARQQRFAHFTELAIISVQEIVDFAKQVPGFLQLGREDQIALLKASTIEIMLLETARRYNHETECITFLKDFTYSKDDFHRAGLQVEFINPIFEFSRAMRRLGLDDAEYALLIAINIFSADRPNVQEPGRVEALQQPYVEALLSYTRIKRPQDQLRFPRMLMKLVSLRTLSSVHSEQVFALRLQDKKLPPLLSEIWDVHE
Protocol: as §2, §3

Row | Structure (SMILES) | fluorescence emitted from APC at 665 nm (SRC-1 recruitment, Spotfire scale) (LXRα and LXRβ) | ABCA1 mRNA levels (ABCA1 [1]; RT-PCR normalized to cyclophilin, LXR dependent (wild type vs LXRαβ-/-)) | ABCA1 protein levels (ABCA1 [1]; western blot, LXR dependent) | expression of ABCA1 mRNA in tissues (ABCA1 [2]) | expression of ABCA1 mRNA in mouse embryonic fibroblasts (ABCA1 [3]) | interaction of LXRα with co-repressors NCoR and SMRT [4] | interaction of LXRβ with co-repressors NCoR and SMRT [5]
1 | CC(C)CC[C@@H](O)[C@@H](C)[C@H]1CC[C@H]2[C@@H]3CC=C4C[C@@H](O)CC[C@]4(C)[C@H]3CC[C@]12C [22-R-Hydroxy-Cholesterol] | around 100 |  |  |  |  |  | 
2 | O=S(=O)(c1ccccc1)N(CC(F)(F)F)c1ccc(C(O)(C(F)(F)F)C(F)(F)F)cc1 [T0901317, N-(2,2,2,-trifluoro-ethyl)-N-[4-(2,2,2-trifluoro-1-hydroxy-1-trifluoromethyl-ethyl)-phenyl]-benzenesulfonamide] |  | increases | increases | increases | increases | inhibited | inhibited

Source: patent US20030228607A1, “Screening method and modulators having an improved therapeutic profile” (priority 2002, published 2003)
